Test results: ChEMBL document CHEMBL4118122, “Identification and biological evaluation of thiazole-based inverse agonists of RORγt” (Bioorg Med Chem Lett, 2018); call rule not given here
Converted amounts (≈) assume the structure as drawn. One block for each molecule: values may come before it.

Key:
[1] = Half life in human microsomes; type: ADME, Microsome
[2] = Thermodynamic solubility of the compound in 30 mM phosphate buffer at 10 mM at pH 7 after 2 to 5 days by UV-HPLC analysis; type: physicochemical; conditions: read-out: Therm_solubility
[3] = Half life in rat microsomes; type: ADME, Microsome
Cytochrome P450 2C9 = Cytochrome P450 2C9 (Homo sapiens, UniProt P11712); test: Inhibition of CYP2C9 (unknown origin); type: ADME
Cytochrome P450 1A2 = target: T1, Cytochrome P450 1A2 (Homo sapiens, UniProt P05177); test: Inhibition of CYP1A2 (unknown origin); type: ADME
T1 sequence (P05177 whole entry): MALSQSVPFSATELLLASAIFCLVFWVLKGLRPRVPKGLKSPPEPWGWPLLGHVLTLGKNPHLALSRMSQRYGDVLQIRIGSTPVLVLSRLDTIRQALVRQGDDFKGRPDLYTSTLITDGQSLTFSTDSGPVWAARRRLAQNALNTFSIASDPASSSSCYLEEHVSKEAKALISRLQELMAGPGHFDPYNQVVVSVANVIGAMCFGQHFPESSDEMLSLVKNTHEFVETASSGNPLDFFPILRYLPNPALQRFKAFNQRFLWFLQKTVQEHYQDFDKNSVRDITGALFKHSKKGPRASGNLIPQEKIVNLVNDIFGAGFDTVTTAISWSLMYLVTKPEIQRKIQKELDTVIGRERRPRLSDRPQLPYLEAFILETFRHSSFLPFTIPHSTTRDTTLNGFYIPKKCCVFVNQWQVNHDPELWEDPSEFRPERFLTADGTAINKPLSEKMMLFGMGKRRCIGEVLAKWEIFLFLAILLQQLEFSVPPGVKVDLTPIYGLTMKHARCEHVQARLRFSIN

Cytochrome P450 2D6 = Cytochrome P450 2D6 (Homo sapiens, UniProt P10635); test: Inhibition of CYP2D6 (unknown origin); type: ADME
[4] = target: Voltage-gated inwardly rectifying potassium channel KCNH2 (Homo sapiens, UniProt Q12809); test: Inhibition of human ERG
Cytochrome P450 2C8 = target: T2, Cytochrome P450 2C8 (Homo sapiens, UniProt P10632); test: Inhibition of CYP2C8 (unknown origin); type: ADME
T2 sequence (P10632 whole entry): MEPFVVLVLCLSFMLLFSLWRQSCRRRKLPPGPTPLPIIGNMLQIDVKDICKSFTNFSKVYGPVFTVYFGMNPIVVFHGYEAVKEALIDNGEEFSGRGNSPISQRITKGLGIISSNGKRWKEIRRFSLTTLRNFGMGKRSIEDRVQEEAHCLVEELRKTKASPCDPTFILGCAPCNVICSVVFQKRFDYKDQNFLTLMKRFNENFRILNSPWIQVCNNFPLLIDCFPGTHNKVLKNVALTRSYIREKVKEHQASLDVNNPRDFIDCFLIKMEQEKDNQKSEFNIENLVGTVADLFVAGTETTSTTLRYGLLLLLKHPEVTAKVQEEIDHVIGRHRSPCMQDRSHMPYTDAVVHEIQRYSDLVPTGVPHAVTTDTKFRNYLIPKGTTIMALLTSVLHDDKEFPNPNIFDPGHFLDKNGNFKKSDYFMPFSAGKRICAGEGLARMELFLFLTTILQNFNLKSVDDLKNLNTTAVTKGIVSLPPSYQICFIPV

Cytochrome P450 2C19 = Cytochrome P450 2C19 (Homo sapiens, UniProt P33261); test: Inhibition of CYP2C19 (unknown origin); type: ADME
Cytochrome P450 3A4 = Cytochrome P450 3A4 (Homo sapiens, UniProt P08684); test: Inhibition of CYP3A4 (unknown origin); type: ADME
[5] = Glutathione reactivity assessed as GSH adduct formation; type: physicochemical
[6] = AUC (0 to infinity) in Sprague-Dawley rat at 2.5 mg/kg, po; type: ADME, organism-based; parameters: dose 2.5 mg/kg, time infinity, route oral; conditions: in vivo
[7] = Cmax in Sprague-Dawley rat at 2.5 mg/kg, po; type: ADME, organism-based; parameters: dose 2.5 mg/kg, route oral; conditions: in vivo
[8] = Volume of distribution at steady state in Sprague-Dawley rat at 0.5 mg/kg, iv; type: ADME, organism-based; conditions: in vivo, read-out: Vdss
[9] = Terminal half life in Sprague-Dawley rat at 2.5 mg/kg, po; type: ADME, organism-based; conditions: in vivo, read-out: beta t1/2 (converted)
PXR (NR1I2) [10] = target: T3, PXR (NR1I2) (Homo sapiens, UniProt O75469); test: […] at PXR LBD (unknown origin) expressed in HEK293 cells […] at 10 uM after 16 hrs by luciferase reporter gene assay relative to rifampicin; type: ADME, cell-based; conditions: HEK293 cells expressing PXR LBD, read-out: Efficacy
T3 sequence (O75469 whole entry): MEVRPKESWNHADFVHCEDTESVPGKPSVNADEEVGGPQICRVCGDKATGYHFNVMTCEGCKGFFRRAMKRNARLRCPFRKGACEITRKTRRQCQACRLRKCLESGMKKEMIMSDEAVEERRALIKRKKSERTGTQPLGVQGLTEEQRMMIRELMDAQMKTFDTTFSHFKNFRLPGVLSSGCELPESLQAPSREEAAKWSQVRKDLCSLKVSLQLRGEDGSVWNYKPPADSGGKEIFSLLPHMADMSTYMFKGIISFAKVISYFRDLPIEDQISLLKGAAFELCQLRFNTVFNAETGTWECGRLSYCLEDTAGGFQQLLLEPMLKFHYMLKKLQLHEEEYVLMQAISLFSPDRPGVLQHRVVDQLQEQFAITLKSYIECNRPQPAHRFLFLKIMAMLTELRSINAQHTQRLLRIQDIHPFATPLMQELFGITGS

[11] = Initial plasma concentration in Sprague-Dawley rat at 0.5 mg/kg, iv; type: ADME, organism-based
[12] = Thermodynamic solubility of the compound in fasted state simulated intestinal […] after 2 to 5 days by UV-HPLC analysis; type: physicochemical; conditions: read-out: Therm_solubility
[13] = Tmax in Sprague-Dawley rat at 2.5 mg/kg, po; type: ADME, organism-based; conditions: in vivo
PXR (NR1I2) [14] = target: T3, PXR (NR1I2); test: […] at PXR LBD (unknown origin) expressed in HEK293 cells […] at 1 uM after 16 hrs by luciferase reporter gene assay relative to rifampicin; type: ADME, cell-based; conditions: HEK293 cells expressing PXR LBD, read-out: Efficacy
[15] = Half life in Sprague-Dawley rat at 0.5 mg/kg, iv; type: ADME, organism-based; conditions: in vivo
[16] = Oral bioavailability in Sprague-Dawley rat at 2.5 mg/kg; type: ADME, organism-based; conditions: in vivo
[17] = Clearance in Sprague-Dawley rat at 0.5 mg/kg, iv; type: ADME, organism-based; conditions: in vivo
[18] = (§1) AUC (0 to infinity) in Sprague-Dawley rat at 0.5 mg/kg, iv; type: ADME, organism-based; parameters: dose 0.5 mg/kg, route intravenous, time infinity; conditions: Sprague-Dawley, in vivo
Rattus norvegicus = test: as §1; type: ADME, organism-based; parameters: dose 0.5 mg/kg, route intravenous, time infinity; conditions: in vivo

Cytochrome P450 2D6, sequence (P10635 whole entry): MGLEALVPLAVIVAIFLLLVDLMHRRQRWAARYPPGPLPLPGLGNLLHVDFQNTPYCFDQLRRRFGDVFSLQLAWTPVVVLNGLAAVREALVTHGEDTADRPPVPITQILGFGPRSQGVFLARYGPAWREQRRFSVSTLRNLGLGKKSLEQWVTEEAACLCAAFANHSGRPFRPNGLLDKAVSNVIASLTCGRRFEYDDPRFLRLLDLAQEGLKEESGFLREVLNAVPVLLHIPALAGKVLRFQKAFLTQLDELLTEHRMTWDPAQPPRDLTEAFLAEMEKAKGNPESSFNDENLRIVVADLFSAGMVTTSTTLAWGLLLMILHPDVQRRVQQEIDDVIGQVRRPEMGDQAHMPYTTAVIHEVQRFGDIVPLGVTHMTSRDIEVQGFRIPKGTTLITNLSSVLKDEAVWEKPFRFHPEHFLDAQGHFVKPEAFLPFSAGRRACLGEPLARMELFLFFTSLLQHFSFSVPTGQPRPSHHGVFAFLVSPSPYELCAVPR
Cytochrome P450 2C19, sequence (P33261 whole entry): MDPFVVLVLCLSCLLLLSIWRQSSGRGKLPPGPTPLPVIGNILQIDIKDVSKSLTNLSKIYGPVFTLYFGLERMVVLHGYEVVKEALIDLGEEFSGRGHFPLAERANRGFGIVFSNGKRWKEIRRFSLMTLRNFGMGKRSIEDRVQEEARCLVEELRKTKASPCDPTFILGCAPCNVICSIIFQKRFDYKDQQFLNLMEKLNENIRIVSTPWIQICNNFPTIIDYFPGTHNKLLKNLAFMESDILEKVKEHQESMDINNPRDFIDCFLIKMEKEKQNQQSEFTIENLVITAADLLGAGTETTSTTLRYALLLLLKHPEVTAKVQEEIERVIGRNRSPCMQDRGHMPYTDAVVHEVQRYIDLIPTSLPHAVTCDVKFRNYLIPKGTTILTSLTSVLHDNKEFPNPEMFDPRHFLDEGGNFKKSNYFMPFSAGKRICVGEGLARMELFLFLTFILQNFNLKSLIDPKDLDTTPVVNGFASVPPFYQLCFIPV
Cytochrome P450 3A4, sequence (P08684 whole entry): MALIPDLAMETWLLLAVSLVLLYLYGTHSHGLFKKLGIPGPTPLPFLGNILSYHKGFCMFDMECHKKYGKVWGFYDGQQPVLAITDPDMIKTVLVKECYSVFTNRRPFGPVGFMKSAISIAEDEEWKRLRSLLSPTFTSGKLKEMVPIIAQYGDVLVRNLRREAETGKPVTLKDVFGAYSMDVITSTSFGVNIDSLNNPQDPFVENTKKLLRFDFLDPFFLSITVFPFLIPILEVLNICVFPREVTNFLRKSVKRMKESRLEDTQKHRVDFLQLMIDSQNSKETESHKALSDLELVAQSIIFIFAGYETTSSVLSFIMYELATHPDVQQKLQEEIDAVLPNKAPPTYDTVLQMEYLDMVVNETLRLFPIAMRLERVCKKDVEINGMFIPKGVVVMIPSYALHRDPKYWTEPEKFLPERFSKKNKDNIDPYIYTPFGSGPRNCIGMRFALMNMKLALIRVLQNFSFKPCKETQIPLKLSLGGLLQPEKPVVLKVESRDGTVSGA
Cytochrome P450 2C9, sequence (P11712 whole entry): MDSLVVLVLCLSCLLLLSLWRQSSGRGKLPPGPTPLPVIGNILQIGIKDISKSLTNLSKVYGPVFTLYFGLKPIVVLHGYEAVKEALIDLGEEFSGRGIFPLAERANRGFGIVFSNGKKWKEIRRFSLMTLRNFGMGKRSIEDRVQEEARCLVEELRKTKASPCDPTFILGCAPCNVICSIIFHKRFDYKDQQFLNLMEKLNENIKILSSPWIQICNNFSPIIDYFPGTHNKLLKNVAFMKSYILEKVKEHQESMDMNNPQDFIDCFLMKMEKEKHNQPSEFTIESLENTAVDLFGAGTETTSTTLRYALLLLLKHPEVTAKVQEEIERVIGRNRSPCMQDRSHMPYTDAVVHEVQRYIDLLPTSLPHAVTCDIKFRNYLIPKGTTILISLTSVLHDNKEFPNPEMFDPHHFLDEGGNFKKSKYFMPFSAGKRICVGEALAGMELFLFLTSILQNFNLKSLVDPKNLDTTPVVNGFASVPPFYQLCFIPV
Voltage-gated inwardly rectifying potassium channel KCNH2, sequence (Q12809 whole entry): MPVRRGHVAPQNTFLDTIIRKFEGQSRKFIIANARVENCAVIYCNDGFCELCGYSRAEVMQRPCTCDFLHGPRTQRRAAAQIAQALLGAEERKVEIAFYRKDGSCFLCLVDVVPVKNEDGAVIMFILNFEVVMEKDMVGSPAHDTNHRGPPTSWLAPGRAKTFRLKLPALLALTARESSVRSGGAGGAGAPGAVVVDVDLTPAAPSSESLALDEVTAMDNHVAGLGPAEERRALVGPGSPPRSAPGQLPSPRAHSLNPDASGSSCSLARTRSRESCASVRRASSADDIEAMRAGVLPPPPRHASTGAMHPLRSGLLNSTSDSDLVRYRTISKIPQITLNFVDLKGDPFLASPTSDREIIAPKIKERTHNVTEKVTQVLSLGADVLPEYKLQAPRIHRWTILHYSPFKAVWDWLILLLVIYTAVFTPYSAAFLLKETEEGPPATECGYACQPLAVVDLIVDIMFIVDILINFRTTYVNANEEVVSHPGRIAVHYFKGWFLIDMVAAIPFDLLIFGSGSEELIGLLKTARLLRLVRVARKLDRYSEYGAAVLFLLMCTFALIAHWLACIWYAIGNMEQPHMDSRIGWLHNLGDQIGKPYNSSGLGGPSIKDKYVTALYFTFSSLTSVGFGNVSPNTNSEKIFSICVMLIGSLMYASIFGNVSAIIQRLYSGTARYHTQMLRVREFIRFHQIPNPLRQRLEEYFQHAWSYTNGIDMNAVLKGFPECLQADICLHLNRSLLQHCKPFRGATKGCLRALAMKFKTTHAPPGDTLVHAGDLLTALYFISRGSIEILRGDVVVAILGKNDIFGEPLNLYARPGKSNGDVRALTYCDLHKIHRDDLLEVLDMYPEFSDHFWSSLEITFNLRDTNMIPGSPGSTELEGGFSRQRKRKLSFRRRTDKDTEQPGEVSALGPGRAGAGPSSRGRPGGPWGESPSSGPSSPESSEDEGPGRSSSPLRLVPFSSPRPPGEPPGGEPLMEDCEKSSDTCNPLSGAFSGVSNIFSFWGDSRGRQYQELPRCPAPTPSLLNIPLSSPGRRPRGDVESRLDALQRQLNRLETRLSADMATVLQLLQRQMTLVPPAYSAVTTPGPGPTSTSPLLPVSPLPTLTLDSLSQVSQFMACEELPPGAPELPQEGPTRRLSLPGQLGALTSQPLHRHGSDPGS

Stability [5]: Stable
Compound: C[C@H](NS(=O)(=O)c1ccc(-c2sc(C(=O)N[C@H]3C[C@H](C(=O)O)C3)nc2CC2CCCCC2)c2ccccc12)C(F)(F)F

half-life [1]: 18 min | AUC(0-inf) [6]: 1580 ng·h/mL | Cmax [7]: 269 ng/mL | Vd [8]: 4.8 L/kg | half-life [9]: 180 min | Emax at 16 h, 10 µM (PXR (NR1I2) [10]): 160% | solubility thermodynamic at 10000 µM [2]: < 1 µM | half-life [3]: 55 min | C0 [11]: 518 ng/mL | INH (Cytochrome P450 2C9): 1.6 µM | INH (Cytochrome P450 1A2): > 10 µM | solubility thermodynamic [12]: < 4 µM | INH (Cytochrome P450 2D6): > 10 µM | Tmax [13]: 60 min | Emax at 16 h, 1 µM (PXR (NR1I2) [14]): 139% | half-life [15]: 90 min | bioavailability [16]: 87.7% | clearance [17]: 42.5 mL/min/kg | AUC(0-inf) [18]: 360 ng·h/mL | INH (Cytochrome P450 2C8): > 10 µM | INH (Cytochrome P450 2C19): > 10 µM | INH (Cytochrome P450 3A4): > 10 µM
Compound: CC(C)(C)NS(=O)(=O)c1ccc(-c2sc(C(=O)N3CC4(C3)CS(=O)(=O)C4)nc2CC2CCCCC2)c(Cl)c1Cl

More lines, now with the values behind:

Compound: CC(C)(C)NS(=O)(=O)c1ccc(-c2sc(C(=O)NCCN3CCOCC3)nc2CC2CCCCC2)c2ccccc12
half-life [1]: < 4 min | solubility thermodynamic at 10000 µM [2]: < 4 µM | half-life [3]: 5.1 min | INH (Cytochrome P450 2C9): 0.4 µM | INH (Cytochrome P450 1A2): > 10 µM | INH (Cytochrome P450 2D6): 6.2 µM | inhibition (INH) [4]: Not Active | INH (Cytochrome P450 2C8): 2.8 µM | INH (Cytochrome P450 2C19): 1.1 µM | INH (Cytochrome P450 3A4): 7.1 µM

Compound: CCC(C)(C)NS(=O)(=O)c1ccc(-c2sc(C(=O)N[C@H]3C[C@H](C(=O)O)C3)nc2CC2CCCCC2)c(Cl)c1C
half-life [1]: 27 min | AUC(0-inf) [6]: 142 ng·h/mL | Cmax [7]: 52 ng/mL | Vd [8]: 2.1 L/kg | half-life [9]: 186 min | Emax at 16 h, 10 µM (PXR (NR1I2) [10]): 34% | solubility thermodynamic at 10000 µM [2]: < 1 µM | half-life [3]: 44 min | C0 [11]: 1410 ng/mL | INH (Cytochrome P450 2C9): 3.2 µM | INH (Cytochrome P450 1A2): > 10 µM | solubility thermodynamic [12]: 59 µM (≈ 35.2 µg/mL) | INH (Cytochrome P450 2D6): > 10 µM | Tmax [13]: 48 min | Emax at 16 h, 1 µM (PXR (NR1I2) [14]): 21% | half-life [15]: 24 min | bioavailability [16]: 18% | clearance [17]: 98.8 mL/min/kg | AUC(0-inf) [18]: 170 ng·h/mL | INH (Cytochrome P450 2C8): 1.8 µM | INH (Cytochrome P450 2C19): > 10 µM | INH (Cytochrome P450 3A4): > 10 µM

Compound: CC(C)(C)NS(=O)(=O)c1ncc(-c2sc(C(=O)N[C@H]3C[C@H](C(=O)O)C3)nc2CC2CCCCC2)c2ccccc12
half-life [1]: 77 min | AUC(0-inf) [6]: 87 ng·h/mL | Cmax [7]: 52 ng/mL | Vd [8]: 1.1 L/kg | half-life [9]: 150 min | Emax at 16 h, 10 µM (PXR (NR1I2) [10]): 102% | solubility thermodynamic at 10000 µM [2]: 13 µM (≈ 7.6 µg/mL) | half-life [3]: 61 min | C0 [11]: 2800 ng/mL | INH (Cytochrome P450 2C9): > 10 µM | INH (Cytochrome P450 1A2): > 10 µM | solubility thermodynamic [12]: 382 µM (≈ 223 µg/mL) | INH (Cytochrome P450 2D6): > 10 µM | Tmax [13]: 24 min | Emax at 16 h, 1 µM (PXR (NR1I2) [14]): 18% | half-life [15]: 18 min | bioavailability [16]: 7.5% | AUC (Rattus norvegicus): 232 ng·h/mL | INH (Cytochrome P450 2C8): > 10 µM | INH (Cytochrome P450 2C19): > 10 µM | INH (Cytochrome P450 3A4): > 10 µM
